# Measured values from patent US6413761B2, “Decaprenyl diphosphate synthetase gene” (Toyota Jidosha Kabushiki Kaisha, priority 1997, dated 2002).
# Test system: DPP synthetase
# Assay: Substrate specificity of the DPP synthetase on various allylic primers ([14C]IPP incorporation)
# Type: biochemical, Paracoccus denitrificans
# Conditions: for Enzyme Activity: allylic primer 25 μM, [14C]IPP 125 μM, 37° C., 1 hour; for Activity of the DPP synthetase with the allylic substrate (in words): substance used as allylic primer substrate
# Method: A 200 μl reaction solution shown below was prepared using an appropriate amount of the crude enzyme extract, various allylic primers and [^1-14C]IPP (54 or 57 Ci/mol; Amersham).
# The solution was incubated at 37° C. for 1 hour to allow an enzyme reaction. Then, 200 μl of saturated aqueous NaCl solution and 1 ml of n-BuOH saturated with saturated aqueous NaCl solution were added thereto and agitated well. The resultant solution was centrifuged to extract the reaction products. 200 μl of the BuOH layer was collected, and 3 ml of Clear Sol was added thereto. Then, the enzyme activity was determined by measuring the radioactivity in the BuOH extract with a liquid scintillation counter. The enzyme activity was expressed in unit, one unit being the amount of IPP (nmol) taken into the reaction products per 1 minute.
# The substrate specificity of this DPP synthetase has been examined on various allyl primers. The unit of enzyme activity is as defined above.
Compound,Enzyme Activity (+Triton X-100 (0.5%)),Activity of the DPP synthetase with the allylic substrate (in words),Enzyme Activity (−Triton X-100)
"CC(C)=CCC/C(C)=C/COP(=O)(O)OP(=O)(O)O [GPP, geranyl diphosphate]",19.8 ×10^−3 unit,slight activity,1.78 ×10^−3 unit
"CC(C)=CCC/C(C)=C/CC/C(C)=C/CC/C(C)=C\COP(=O)(O)OP(=O)(O)O [ZEE-GGPP, ZEE-geranylgeranyl diphosphate]",3.68 ×10^−3 unit,little activity,2.47 ×10^−3 unit
"CC(C)=CCC/C(C)=C/CC/C(C)=C/CC/C(C)=C/COP(=O)(O)OP(=O)(O)O [EEE-GGPP, EEE-geranylgeranyl diphosphate]",35.33 ×10^−3 unit,strong activity,3.22 ×10^−3 unit
